Laboratory results published in US10982196B2, “Immunotherapy targeting intracellular pathogens” (LIFE SCIENCES RESEARCH PARTNERS VZW, priority 2008, dated 2021).

Columns and labels:
dendritic cells [1] = details: dendritic cells loaded with peptide of SEQ ID NO:1, 2 h co-culture with CD4+ T cell line expanded with the peptide; compared with line expanded with SEQ ID NO:1; FIG. 1
Procedure: Adenovirus of serotype 5 (Ad.RR5, E1/E3-deleted) was used in these experiments. Thus, 5 μL of a solution containing 2×10^11 viral particles/ml was administered by the intravenous route to 6 weeks old C57Bl/6 mice. Ten days later, the spleen of such mice was recovered and CD4+ T cells purified by magnetic sorting.
CD4+ T cells obtained from Ad.RR5-immunized mice were cultured in the presence of T lymphocyte-depleted spleen adherent cells used as antigen-presenting cells pre-incubated with either peptide of SEQ ID NO:1 or peptide of SEQ ID NO:2. After two cycles of restimulation, the CD4+ T cell lines were allowed to rest for 10 days. […] The generation of reactive oxygen intermediates (ROI) by dendritic cells was then evaluated after 2 h of co-culture. Dendritic cells were prepared from the spleen of C57Bl/6 mice by sorting on magnetic beads coated with an anti-CD11c specific antibody.
Thus, 10^5 dendritic cells were incubated for 1 h with 10 μM DCFDA, a derivative of fluorescein used as an indicator of ROI generation. […] Fluorescence increases generated by DCFDA oxidation by reactive oxygen intermediates are read in a Facs gated on CD11c(+) cells.

[2] = tested on: IDO (indolamine-2,3-dioxygenase); assay type: cell-based, BALB/c; details: dendritic cells pre-loaded with SEQ ID NO:5 or 7, 8 h co-culture with CD4+ T cells of mice immunised with SEQ ID NO:6 or 8; example written in present tense
[3] = tested on: induced nitric oxide synthase; test: Reactive nitrogen intermediates in antigen-presenting cells, RT-PCR for transcripts of nitric oxide synthase; assay type: cell-based, C57Bl/6 mice; details: dendritic cells co-cultured 6 h with CD4+ T cells and peptide of SEQ ID NO:4; example written in present tense
dendritic cells [4] = test: Reactive oxygen intermediates in antigen-presenting cells co-cultured with CD4+ T cells expanded with modified ESAT-6 epitope, Facs (DCFDA); assay type: cell-based, C57Bl/6 mice; details: dendritic cells loaded with SEQ ID NO:3, 2 h co-culture with CD4+ T cells expanded with SEQ ID NO:4; example written in present tense

CHGCPTLLYVLFEV (modified T-cell epitope of capsid protein adenovirus serotype 5; (1)..(4) thioreductase motif) [SEQ ID NO:2]
ROI produced by dendritic cells (dendritic cells [1]): significantly more ROI

CGHCEKKICKMEK (modified T-cell epitope of CSP antigen Plasmodium falciparum; (1)..(4) modified T-cell epitope) [SEQ ID NO:8]
expression of IDO in dendritic cells [2]: induces a reverse signalling leading to expression of IDO

CGHCDKHIEQYLK (modified Th2R T-cell epitope; (1)..(4) thioreductase motif) [SEQ ID NO:6]
expression of IDO in dendritic cells [2]: induces a reverse signalling leading to expression of IDO

CGHCFAGIEAAAS (modified ESAT6 T-cell epitope; (1)..(4) thioreductase motif) [SEQ ID NO:4]
production of reactive nitrogen intermediates in antigen-presenting cells [3]: shown to be induced | production of reactive oxygen intermediates in antigen-presenting cells (dendritic cells [4]): shown to be induced
